Results as given in patent US4267187A, “Aminopropanol derivatives of 2-(0-hydroxyphenyl)-pyrrole” (BASF Aktiengesellschaft, priority 1978, dated 1981).
Structures can show the parent of a compound that is named as a salt.

Experiments:
[1] = tested on: isoproterenol-induced tachycardia; experiment: β1-sympatholytic action: inhibition of isoproterenol-induced tachycardia in pithed rats; assay type: in vivo, pithed rats (Sprague-Dawley, Rattus norvegicus); details: for β1-sympatholytic action, R.A. (relative activity): Propranolol = 1.00, from ED 50%, intravenous; for β1-sympatholytic activity, times greater than that of propranolol: versus propranolol
Procedure: The β-sympatholytic action was tested on rats, in comparison with the known β-sympatholytic agent propanolol (1-(isopropylamino)-1-naphthyloxy-2-propanol.HCl). The following methods were used for this purpose:
1. β1 -sympatholytic action
^1 Inhibition of isoproterenolinduced tachycardia in pithed rats.
Intravenous administration
^2 Dose which inhibits the isoproterenolinduced tachycardia by 50%

NMRI mice = experiment: Acute toxicity in mice, intraperitoneal; details: deaths within 24 hours, Probit analysis
Procedure: The acute toxicity was determined on groups of 10 female NMRI mice, weight 19-27 g, with intraperitoneal administration.
Intraperitoneal administration

[2] = for Therapeutic range, relative: in vivo; for Therapeutic range (LD 50/ED 50%), times greater than that of propranolol: versus propranolol

SMILES | β1-sympatholytic action, R.A. (relative activity) ([1]; pithed rats) | ED50 ([1]; Rattus norvegicus, iv, 5 min, read-out: β1-sympatholytic action, ED 50% (dose which inhibits the isoproterenol-induced tachycardia by 50%)) [mg/kg] | Acute toxicity LD 50 (NMRI mice) | Therapeutic range, relative [2] | Therapeutic range (LD 50/ED 50%), times greater than that of propranolol [2] [times] | β1-sympatholytic activity, times greater than that of propranolol [1] [times] | increase in pulse rate, on average ([1]; isoproterenol 0.1 μg/kg intravenously, pithed rats) [%]
CC(C)NCC(O)COc1cccc2ccccc12 (racemic) [Propranolol, 1-(isopropylamino)-1-naphthyloxy-2-propanol.HCl, reference compound] | 1.00 | 0.0127 | – | – | – | – | –
CC(C)(C)NCC(O)COc1ccccc1-c1ccc[nH]1 (stereo not drawn) [Example 1, 2-[2-(3-tert.-butylamino-2-hydroxypropoxy)-phenyl]-pyrrole fumarate] | 5.59 | – | 165 | 6.91 | 7 | 5.6 | –
CC(C)NCC(O)c1ccc(O)c(O)c1 (stereo not drawn) [Isoproterenol, reference compound] | – | – | – | – | – | – | 45
CC(C)NCC(O)COc1ccccc1-c1ccc[nH]1 (stereo not drawn) [Example 2, 2-[2-(3-isopropylamino-2-hydroxypropoxy)-phenyl]-pyrrole fumarate hemihydrate] | 3.18 | – | – | 4.07 | 4 | 3.2 | –
